Assays:
liver = conditions: in vivo; cited from earlier work
[1] = tested on: mRNA expressed from the genes (A) to (D) in rat liver; experiment: Behavior of genes (mRNA expression level, oligo-DNA microarray) in rat liver after 28-day oral administration; assay type: in vivo
In short: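 Liver mRNA measured by oligo-DNA microarray after 28 days of once-daily oral gavage in 5-week-old male F344 rats (n=4 per group), with vehicle controls given equal solvent volume. Significance threshold: 1.5-fold up or down versus control, with changes opposite in direction to other carcinogens counted as not significant.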

rodent = conditions: in vivo; cited from earlier work
[2] = (C), Unigene Rn.120914, defined direction +, rat liver, oral once daily 28 days
[3] = gene group (A), Unigene No. Rn.167075, mRNA vs vehicle control group
[4] = gene group (C), Unigene No. Rn.120914, mRNA vs vehicle control group

## Cc1ccc(N)cc1N [TS004, 2,4-Diaminotoluene]
liver
  Liver carcinogenicity: Cr+
[1]; (A), Unigene Rn.144554, defined direction +, rat liver, oral once daily 28 days
  Behavior of gene caused by administration of chemical substance, Gene No. 4846: +
[1]; (A), Unigene Rn.167075, defined direction +, rat liver, oral once daily 28 days, significant = 1.5 times or more or 1/1.5 or less of control
  Behavior of gene caused by administration of chemical substance, Gene No. 4218: +
[1]; (A), Unigene Rn.167075, defined direction −, rat liver, oral once daily 28 days
  Behavior of gene caused by administration of chemical substance, Gene No. 2026: +
[1]; (A), Unigene Rn.5834, defined direction +, rat liver, oral once daily 28 days
  Behavior of gene caused by administration of chemical substance, Gene No. 6182: +
[1]; (A), Unigene Rn.9836, defined direction +, rat liver, oral once daily 28 days
  Behavior of gene caused by administration of chemical substance, Gene No. 5600: +
[1]; (B), Unigene Rn.1430, defined direction −, rat liver, oral once daily 28 days
  Behavior of gene caused by administration of chemical substance, Gene No. 1494: +
[1]; (B), Unigene Rn.19329, defined direction +, rat liver, oral once daily 28 days
  Behavior of gene caused by administration of chemical substance, Gene No. 2045: −
[1]; (B), Unigene Rn.21240, defined direction +, rat liver, oral once daily 28 days
  Behavior of gene caused by administration of chemical substance, Gene No. 2203: −
[1]; (C), Unigene Rn.106184, defined direction +, rat liver, oral once daily 28 days
  Behavior of gene caused by administration of chemical substance, Gene No. 533: −
[1]; (C), Unigene Rn.108075, defined direction −, rat liver, oral once daily 28 days
  Behavior of gene caused by administration of chemical substance, Gene No. 725: +
[1]; (C), Unigene Rn.11766, defined direction +, rat liver, oral once daily 28 days
  Behavior of gene caused by administration of chemical substance, Gene No. 1163: −
[1]; (C), Unigene Rn.118529, defined direction −, rat liver, oral once daily 28 days
  Behavior of gene caused by administration of chemical substance, Gene No. 4973: −
[1]; (C), Unigene Rn.119024, defined direction −, rat liver, oral once daily 28 days
  Behavior of gene caused by administration of chemical substance, Gene No. 4095: −
[1]; [2]
  Behavior of gene caused by administration of chemical substance, Gene No. 1334: −
  Behavior of gene caused by administration of chemical substance, Gene No. 6620: −
[1]; (C), Unigene Rn.123063, defined direction −, rat liver, oral once daily 28 days
  Behavior of gene caused by administration of chemical substance, Gene No. 6303: −
[1]; (C), Unigene Rn.143213, defined direction −, rat liver, oral once daily 28 days
  Behavior of gene caused by administration of chemical substance, Gene No. 5878: −
[1]; (C), Unigene Rn.144946, defined direction −, rat liver, oral once daily 28 days
  Behavior of gene caused by administration of chemical substance, Gene No. 1131: −
[1]; (C), Unigene Rn.14744, defined direction −, rat liver, oral once daily 28 days
  Behavior of gene caused by administration of chemical substance, Gene No. 1562: −
[1]; (C), Unigene Rn.1647, defined direction −, rat liver, oral once daily 28 days
  Behavior of gene caused by administration of chemical substance, Gene No. 1741: −
[1]; (C), Unigene Rn.164817, defined direction +, rat liver, oral once daily 28 days
  Behavior of gene caused by administration of chemical substance, Gene No. 893: −
[1]; (C), Unigene Rn.167685, defined direction −, rat liver, oral once daily 28 days
  Behavior of gene caused by administration of chemical substance, Gene No. 6026: −
[1]; (C), Unigene Rn.185941, defined direction −, rat liver, oral once daily 28 days
  Behavior of gene caused by administration of chemical substance, Gene No. 154: −
[1]; (C), Unigene Rn.18728, defined direction −, rat liver, oral once daily 28 days
  Behavior of gene caused by administration of chemical substance, Gene No. 1993: −
[1]; (C), Unigene Rn.201760, defined direction +, rat liver, oral once daily 28 days
  Behavior of gene caused by administration of chemical substance, Gene No. 813: −
[1]; (C), Unigene Rn.23969, defined direction +, rat liver, oral once daily 28 days
  Behavior of gene caused by administration of chemical substance, Gene No. 2494: −
[1]; (C), Unigene Rn.24561, defined direction −, rat liver, oral once daily 28 days
  Behavior of gene caused by administration of chemical substance, Gene No. 2546: −
[1]; (C), Unigene Rn.43232, defined direction −, rat liver, oral once daily 28 days
  Behavior of gene caused by administration of chemical substance, Gene No. 3776: −
[1]; (C), Unigene Rn.4620, defined direction +, rat liver, oral once daily 28 days
  Behavior of gene caused by administration of chemical substance, Gene No. 3929: −
[1]; (C), Unigene Rn.9757, defined direction +, rat liver, oral once daily 28 days
  Behavior of gene caused by administration of chemical substance, Gene No. 1119: −
[1]; (C), Unigene Rn.9779, defined direction +, rat liver, oral once daily 28 days
  Behavior of gene caused by administration of chemical substance, Gene No. 6742: −
[1]; (C), Unigene Rn.9862, defined direction −, rat liver, oral once daily 28 days
  Behavior of gene caused by administration of chemical substance, Gene No. 5634: −
[1]; (D), Unigene Rn.9939, defined direction −, rat liver, oral once daily 28 days
  Behavior of gene caused by administration of chemical substance, Gene No. 5726: −
rodent
  Carcinogenicity: C+

## Cc1c(N)cccc1N [TS005, 2,6-Diaminotoluene]
liver
  Liver carcinogenicity: Cr−
[1]; gene group (A), Unigene No. Rn.144554, mRNA vs vehicle control group
  Behavior of gene caused by administration of chemical substance, Gene No. 4846: −
[1]; [3]
  Behavior of gene caused by administration of chemical substance, Gene No. 2026: −
  Behavior of gene caused by administration of chemical substance, Gene No. 4218: −
[1]; gene group (A), Unigene No. Rn.5834, mRNA vs vehicle control group
  Behavior of gene caused by administration of chemical substance, Gene No. 6182: −
[1]; gene group (A), Unigene No. Rn.9836, mRNA vs vehicle control group
  Behavior of gene caused by administration of chemical substance, Gene No. 5600: −
[1]; gene group (B), Unigene No. Rn.1430, mRNA vs vehicle control group
  Behavior of gene caused by administration of chemical substance, Gene No. 1494: −
[1]; gene group (B), Unigene No. Rn.19329, mRNA vs vehicle control group
  Behavior of gene caused by administration of chemical substance, Gene No. 2045: −
[1]; gene group (B), Unigene No. Rn.21240, mRNA vs vehicle control group
  Behavior of gene caused by administration of chemical substance, Gene No. 2203: −
[1]; gene group (C), Unigene No. Rn.106184, mRNA vs vehicle control group
  Behavior of gene caused by administration of chemical substance, Gene No. 533: −
[1]; gene group (C), Unigene No. Rn.108075, mRNA vs vehicle control group
  Behavior of gene caused by administration of chemical substance, Gene No. 725: −
[1]; gene group (C), Unigene No. Rn.11766, mRNA vs vehicle control group
  Behavior of gene caused by administration of chemical substance, Gene No. 1163: −
[1]; gene group (C), Unigene No. Rn.118529, mRNA vs vehicle control group
  Behavior of gene caused by administration of chemical substance, Gene No. 4973: −
[1]; gene group (C), Unigene No. Rn.119024, mRNA vs vehicle control group
  Behavior of gene caused by administration of chemical substance, Gene No. 4095: −
[1]; [4]
  Behavior of gene caused by administration of chemical substance, Gene No. 1334: −
  Behavior of gene caused by administration of chemical substance, Gene No. 6620: −
[1]; gene group (C), Unigene No. Rn.123063, mRNA vs vehicle control group
  Behavior of gene caused by administration of chemical substance, Gene No. 6303: −
[1]; gene group (C), Unigene No. Rn.143213, mRNA vs vehicle control group
  Behavior of gene caused by administration of chemical substance, Gene No. 5878: −
[1]; gene group (C), Unigene No. Rn.144946, mRNA vs vehicle control group
  Behavior of gene caused by administration of chemical substance, Gene No. 1131: +
[1]; gene group (C), Unigene No. Rn.14744, mRNA vs vehicle control group
  Behavior of gene caused by administration of chemical substance, Gene No. 1562: −
[1]; gene group (C), Unigene No. Rn.1647, mRNA vs vehicle control group
  Behavior of gene caused by administration of chemical substance, Gene No. 1741: −
[1]; gene group (C), Unigene No. Rn.164817, mRNA vs vehicle control group
  Behavior of gene caused by administration of chemical substance, Gene No. 893: −
[1]; gene group (C), Unigene No. Rn.167685, mRNA vs vehicle control group
  Behavior of gene caused by administration of chemical substance, Gene No. 6026: −
[1]; gene group (C), Unigene No. Rn.185941, mRNA vs vehicle control group
  Behavior of gene caused by administration of chemical substance, Gene No. 154: −
[1]; gene group (C), Unigene No. Rn.18728, mRNA vs vehicle control group
  Behavior of gene caused by administration of chemical substance, Gene No. 1993: −
[1]; gene group (C), Unigene No. Rn.201760, mRNA vs vehicle control group
  Behavior of gene caused by administration of chemical substance, Gene No. 813: −
[1]; gene group (C), Unigene No. Rn.23969, mRNA vs vehicle control group
  Behavior of gene caused by administration of chemical substance, Gene No. 2494: −
[1]; gene group (C), Unigene No. Rn.24561, mRNA vs vehicle control group
  Behavior of gene caused by administration of chemical substance, Gene No. 2546: −
[1]; gene group (C), Unigene No. Rn.43232, mRNA vs vehicle control group
  Behavior of gene caused by administration of chemical substance, Gene No. 3776: −
[1]; gene group (C), Unigene No. Rn.4620, mRNA vs vehicle control group
  Behavior of gene caused by administration of chemical substance, Gene No. 3929: −
[1]; gene group (C), Unigene No. Rn.9757, mRNA vs vehicle control group
  Behavior of gene caused by administration of chemical substance, Gene No. 1119: −
[1]; gene group (C), Unigene No. Rn.9779, mRNA vs vehicle control group
  Behavior of gene caused by administration of chemical substance, Gene No. 6742: −
[1]; gene group (C), Unigene No. Rn.9862, mRNA vs vehicle control group
  Behavior of gene caused by administration of chemical substance, Gene No. 5634: −
[1]; gene group (D), Unigene No. Rn.9939, mRNA vs vehicle control group
  Behavior of gene caused by administration of chemical substance, Gene No. 5726: −
rodent
  Carcinogenicity: C−

Reference: US20110039721A1, “METHOD FOR PREDICTION ABOUT CARCINOGENICITY OF SUBSTANCE IN RODENT” (Chemicals Evaluation and Research Institute, priority 2007, published 2011)
